From patent publication US11021441B2, “High solubility thioether quinones” (Wisconsin Alumni Research Foundation, priority 2017, dated 2021)

Test: Redox couple / cyclic voltammetry in aqueous 1 M H2SO4
Format: physicochemical
Protocol: More preferably, a solution of mercaptoethanesulfonate is allowed to react with a suspension of benzoquinone in water (Scheme 16). 0.655 g of sodium mercaptoethanesulfonate in 10 ml of water with 60 microliters of acetic acid was treated with 0.438 g of benzoquinone and allowed to stir at room temperature for 45 minutes. The resulting mixture was filtered and the filtrate was extracted with three 5 ml portions of ethyl acetate. The aqueous phase was then diluted with 30 ml of ethanol and heated to clarify it. On cooling, crystals formed that gave ^1H and ^13C NMR spectra in D2O in accord with tetra-thioethylsulfonato hydroquinone, 52 (FIGS. 5A and 5B).
To 3.956 g of sodium 3-mercaptopropanesulfonate dispersed in 50 mL of nitrogen-purged N-methyl pyrrolidinone were added 10.5 mL of 2 M aqueous NaOH. Once mixed, 2.766 g of 1,8-dichloroanthraquinone were added (Scheme 28). The suspension was heated under nitrogen to 90° C. for six days then allowed to cool. 50 mL of water containing 1 mL of acetic acid was added to the cooled solution, which was further diluted with 25 mL water. The solution was extracted with four 50 mL portions of methylene chloride, and the aqueous phase was evaporated. The residue was dissolved with 35 mL of water and 60 mL of methanol was added. The mixture was heated until clear, and left to slowly cool. […]

| reversible redox couple (aqueous 1 M H2SO4) | SMILES | reduction potential (cyclic voltammetry in 1 M H2SO4) |
| --- | --- | --- |
| 0.63 V vs. NHE | O=S(=O)([O-])CCSc1c(O)c(SCCS(=O)(=O)[O-])c(SCCS(=O)(=O)[O-])c(O)c1SCCS(=O)(=O)[O-].[Na+].[Na+].[Na+].[Na+] [Compound 52, 2,3,5,6-tetrakis(ethylsulfanyl-2′-sulfonate)-1,4-hydroquinone tetrasodium salt] |  |
|  | O=C1c2cccc(SCCCS(=O)(=O)[O-])c2C(=O)c2c(SCCCS(=O)(=O)[O-])cccc21.[Na+].[Na+] [Compound 109] | approximately 85 mV vs. NHE |
